Holding throughout (assay type): physicochemical
Series [1] is described as follows: Solubility of cocrystal. The following applies: RT.
Series [2] can be described thus: Moisture sorption analysis (Dynamic Vapour Sorption, DVS). Conditions: result in words. The procedure:
Water Vapour Sorption isotherms were obtained using a Dynamic Vapour Sorption apparatus (model: DVS - Advantage, supplier: Surface Measurement Systems Limited). The DVS apparatus consists of an ultra-microbalance housed inside a temperature-controlled cabinet. The sample was placed into a DVS sample pan under a stream of nitrogen (200 sccm) at 25°C. The humidity was increased ramping in 10% RH (relative humidity) steps from close to 0% RH to 90% RH (sorption phase). Next the humidity was decreased in a similar fashion for the desorption phase. The sample was held at each RH step for mass stabilization (dm/dt 0.02 %/min) but not less than 10 minutes. Two cycles of sorption and desorption were investigated.

Series [3] is described as follows: Dissolution studies (Ph. Eur. paddle method, tablets, HPLC analysis). The following applies: buffer pH 6.8 + 0.3% SLS, result in words. As to the method:
Dissolution studies were performed using a Hanson SR8PLUS dissolution apparatus, according to European Pharmacopoeia apparatus, paddle method. The samples were tested in 900mL pH 6.8 with 0.3% SLS at 37.0°C +/- 0.5°C and the paddle rotation speed was set at 75 rpm. Dissolution study was conducted for 60min and samples were analyzed using HPLC method.
• Injection Volume: 0.5, 0.2 µl; • Run Time: 15.0 minutes; • Column: Symmetry C18; 250x4,6mm; 5µm, Vial: 1:A,1, 1:c,7, 1:c,8; • Mobile phase: gradient: acetonitrile : buffer (1 vol. TEA and 150 vol. 2,7g/l KH2PO4, pH2,0 adjust with H3PO4); • Column temp: 25°C; and • Flow: 1 ml/min.

For the compound `CCOc1cc([C@@H](CS(C)(=O)=O)N2C(=O)c3cccc(NC(C)=O)c3C2=O)ccc1OC.O=C(O)c1ccc(O)cc1` [APM-4HB, Cocrystal of N-[2-[(1S)-1-(3-ethoxy-4-methoxyphenyl)-2-(methylsulfonyl)ethyl]-1,3-dioxo-2,3-dihydro-1H-isoindol-4-yl]acetamide and 4-hydroxybenzoic acid], in series [1], the Solubility entry is on record as “Solubility: 42.5µg/ml (RT)”. Moreover, the hygroscopicity result in series [2] is “slightly hygroscopic”. Besides, the “dissolution profile compared to prior art Form B of Apremilast” value in series [3] (listed as cocrystal of Apremilast with 4-hydroxybenzoic acid) is recorded as “higher dissolution rate”; in series [3] (listed as cocrystals of Apremilast with 4-hydroxybenzoic acid), “superior dissolution profile”.
For `CCOc1cc([C@@H](CS(C)(=O)=O)N2C(=O)c3cccc(NC(C)=O)c3C2=O)ccc1OC.Cn1c(=O)c2c(ncn2C)n(C)c1=O` [APM-CAF, Cocrystal of N-[2-[(1 S)-1-(3-ethoxy-4-methoxyphenyl)-2-(methylsulfonyl)ethyl]-1,3-dioxo-2,3-dihydro-1H-isoindol-4-yl]acetamide and 1,3,7-trimethylpurine-2,6-dione (caffeine)], the hygroscopicity entry in series [2] is reported as “slightly hygroscopic”. Moreover, the “dissolution profile compared to prior art Form B of Apremilast” value in series [3] is given as “higher dissolution rate”.

The values are drawn from patent EP3339292A1, “COCRYSTALS OF APREMILAST” (Zaklady Farmaceutyczne Polpharma SA, priority 2016, dated 2018).
